Among the test systems are HL-60; U-251; SF-268; T47D; NCI-H460; A498; UACC-62; CCRF-CEM; HCT-116; UO-31; SR; BT-549; MCF7; MOLT-4; SW-620; SK-MEL-5; KM12; NCI/ADR-RES; Malme-3M; DU-145.
Test in all cases: NCI anticancer screen, dose series, 48 h

Molecules are shown by their SMILES.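 96-well plates; 48 h exposure; 5 concentrations. Endpoints by linear interpolation between flanking doses. Not reached: highest tested concentration assigned. Here, GI50 denotes the concentration required for 50% inhibition of growth.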 Calls of active or inactive are those of the source. Cut-off read from the data, not from the text of the source: active = GI50 up to about 1.1 µM and inactive = higher. Where only a bound is given, the exact number is not on record here.

Regarding `CCN(CC)CCCNc1ccc([N+](=O)[O-])c2nc3ccc(OC)cc3c(N)c12`, the GI50 with HL-60 was 1.94 µM (inactive); in the assay on U-251, > 10 µM (inactive); in the assay on SF-268, 1.71 µM (inactive); in the assay on T47D it was > 10 µM (inactive); in the assay with NCI-H460 it was 1.82 µM (inactive); in the assay with A498, > 10 µM (inactive). For the same compound, the GI50 in the assay with UACC-62 was > 10 µM (inactive); in the assay on CCRF-CEM, 1.34 µM (inactive); with HCT-116, 1.05 µM (active); in the assay on UO-31 it was > 5.58 µM (inactive); in the assay on SR, 1.51 µM (inactive); with BT-549 it was 1.53 µM (inactive). For the same compound, the GI50 in the assay on MCF7 was > 4.37 µM (inactive); in the assay with MOLT-4, 1.33 µM (inactive); in the assay on SW-620, 1.49 µM (inactive); with SK-MEL-5 it was > 5.16 µM (inactive); with KM12, 1.57 µM (inactive); with NCI/ADR-RES, > 4.17 µM (inactive). The GI50 in the assay with Malme-3M is > 10 µM (inactive); in the assay on DU-145, 3.21 µM (inactive).

On to `N=C(N)CCNC(=O)C1CCC(N)=N1` (stereo not given), for which the GI50 in the assay with HL-60 is 37.5 µM (inactive); in the assay on U-251, 7.89 µM (inactive); in the assay with SF-268, 10.3 µM (inactive); in the assay on T47D it was 6.5 µM (inactive); with NCI-H460, 7.55 µM (inactive); in the assay on A498, 16 µM (inactive). Moreover, the GI50 is 14 µM (inactive) in the assay on UACC-62; 12.5 µM (inactive) with CCRF-CEM; 13.1 µM (inactive) in the assay on HCT-116; 18.2 µM (inactive) with UO-31; 18.5 µM (inactive) in the assay with SR; 43.4 µM (inactive) in the assay with BT-549. The GI50 in the assay with MCF7 was 16.2 µM (inactive); with MOLT-4 it was 12.2 µM (inactive); in the assay with SW-620, 22.1 µM (inactive); with SK-MEL-5, 16.4 µM (inactive); in the assay with KM12, 6.79 µM (inactive); with NCI/ADR-RES, 26.2 µM (inactive). Also, the GI50 is 7.5 µM (inactive) in the assay with Malme-3M and 4.98 µM (inactive) in the assay with DU-145.

As to `OC1(c2cccs2)c2cccc(Cl)c2C(O)(c2cccs2)c2c(Cl)cccc21` (stereo not given), the GI50 in the assay on HL-60 is > 100 µM (inactive); with U-251, 26.6 µM (inactive); in the assay on SF-268, 22.3 µM (inactive); with T47D, > 100 µM (inactive); in the assay with NCI-H460, > 100 µM (inactive); in the assay on A498 it was > 100 µM (inactive). In addition, the GI50 in the assay on UACC-62 is 34.3 µM (inactive); in the assay with CCRF-CEM, 93.3 µM (inactive); with HCT-116, > 100 µM (inactive); in the assay with UO-31 it was > 100 µM (inactive); in the assay on SR, 36.6 µM (inactive); with BT-549 it was 35.6 µM (inactive). For the same compound, the GI50 was > 100 µM (inactive) in the assay with MCF7; > 100 µM (inactive) with MOLT-4; > 100 µM (inactive) with SW-620; > 100 µM (inactive) with SK-MEL-5; > 100 µM (inactive) with KM12; 63.5 µM (inactive) with NCI/ADR-RES. For the same compound, the values for the GI50 in the assay on Malme-3M and in the assay on DU-145 were 80.2 µM (inactive) and > 100 µM (inactive), respectively.

Source of the values: ChEMBL document CHEMBL1201862, “PubChem BioAssay data set” (2004).
